Source: patent US20250353860A1, “PIPERIDINE CARBOXAMIDE AZAINDANE DERIVATIVE, METHOD FOR PREPARING SAME, AND USE THEREOF” (BRISE PHARMACEUTICALS CO., LTD., priority 2022, published 2025)

Columns and labels:
[1] = Pharmacokinetics in SD rats by oral gavage; assay type: in vivo; settings: for AUC / bioavailability / half-life / Cmax: male, Sprague-Dawley, rat, plasma, PO 10 mg/kg; for bioavailability: read-out: Bioavailability F; for half-life: read-out: Half-life period T½ (converted); for Cmax: read-out: Plasma concentration Cmax; for Pharmacokinetic properties compared with Atogepant: conclusion in words
Text: SD rats were used as test animals, and the LC/MS/MS method was used to determine the drug concentration in plasma at different times after gavage and intravenous […] of the compound of the application, so as to study the pharmacokinetic characteristics of the compound of the application in rats.
Positive control compound Atogepant, Example 1A and Example 3A of the present application;
Eighteen healthy adult Sprague Dawley (SD) male rats were purchased from Joinn (Suzhou) New Drug Research Center Co., Ltd.
An appropriate amount of the compound to be tested was weighed, added with 100% polyethylene glycol 400, and vortexed to dissolve the compound. After the preparation was completed, it would be a colorless and transparent solution with a concentration of 2 mg/mL.
An appropriate amount of the compound to be tested was weighed, added 90% polyethylene glycol 400 and 10% ethanol, and vortexed to dissolve the compound. After the preparation was completed, it would be a colorless and transparent solution with a concentration of 1 mg/mL.
Eighteen healthy adult SD male rats were fasted overnight and fed 4 hours after drug administration.
About 0.2 mL of blood was collected from the jugular vein before administration and 0.083 hours, 0.25 hours, 0.5 hours, 1 hour, 2 hours, 4 hours, 6 hours, 8 hours, 10 hours and 24 hours after administration, and anticoagulated with EDTA-K2. After blood samples were collected, they were placed in labeled ice-water bath centrifuge tubes and rapidly centrifuged to separate plasma. The centrifugation conditions were: 4000 rpm, 10 minutes, 4° C. The collected plasma was stored at below −40° C. for testing. The content of the tested compounds in the plasma of SD rats after gavage and intravenous administration of different compounds was determined by LC-MS/MS.

[2] = tested on: Cynomolgus monkey blood flow; assay: Capsaicin-induced Cynomolgus monkey blood flow model; assay type: in vivo, Cynomolgus monkeys; settings: N = 3
Method: In the capsaicin-induced Cynomolgus monkey blood flow model, the inhibitory effect of the compounds of the present application on cynomolgus monkey blood flow was evaluated.
In Example 1A and Example 3A, 100% polyethylene glycol 400 was used as the vehicle.
Experimental animals: male cynomolgus monkeys, with a body weight range of 3.2 kg to 5.80 kg during the administration period, purchased from Guangxi Xiongsen Primate Experimental Animal Breeding and Development Co., Ltd., production license: SCXK (Gui) 2016-0003; experimental animal quality certificate number: NO. 0002942.
Housing conditions: animals were kept in stainless steel cages by a single cage feeding method. The cage specifications are length×width×height=1 m×1 m×0.8 m. Before anesthesia with zoletil, the animals need to be fasted (but not water). The rest of the time, the animals were fed once in the morning and afternoon, about 100 g each time for one animal, supplemented with fresh fruits. The temperature of the animal room was set at 18-26° C., the humidity was 40-70%, and the lighting was alternating between light and dark for 12 hours.
After adaptive feeding, 10 cynomolgus monkeys were randomly selected, and the basal values were recorded using a moorFLPI-2 laser speckle blood flowmeter before capsaicin stimulation. After capsaicin stimulation, blood flow was tested again, and animals with an area under the time-blood flow rate curve (AUC)≥1000 (min·%) and small individual differences were selected to enter this experiment.
The blank vehicle control group was given 100% polyethylene glycol 400, and the drug administration group was given high and low doses of Example 1A and Example 3A (dissolved in 100% polyethylene glycol 400), respectively.
Note: Bolus is a large-dose push injection; Infusion is a small-dose continuous infusion.
Blood flow detection: all animals were given capsaicin once on the day of administration, and blood flow was detected at 0 min (before capsaicin administration), 5 min, 10 min, 15 min, 20 min and 30 min after capsaicin administration to monitor blood flow changes during this period. After the experiment ended that day, washout was carried out at intervals of 7-10 days, during which the experimental animals were rotated in turn. This type of experiment was repeated three times to obtain the average value of each group of data.
The blood flow change rate, AUC (area under the blood flow change rate-time curve) and blood flow inhibition rate were calculated using Excel.

[3] = 5 min after capsaicin, 0.3 μg/kg + 0.03 μg/kg/min
[4] = 5 min after capsaicin, 1 μg/kg + 0.1 μg/kg/min
[5] = 10 min after capsaicin, 0.3 μg/kg + 0.03 μg/kg/min
[6] = 10 min after capsaicin, 1 μg/kg + 0.1 μg/kg/min
[7] = 15 min after capsaicin, 0.3 μg/kg + 0.03 μg/kg/min
[8] = 15 min after capsaicin, 1 μg/kg + 0.1 μg/kg/min
[9] = 20 min after capsaicin, 0.3 μg/kg + 0.03 μg/kg/min
[10] = 20 min after capsaicin, 1 μg/kg + 0.1 μg/kg/min
[11] = 30 min after capsaicin, 0.3 μg/kg + 0.03 μg/kg/min
[12] = 30 min after capsaicin, 1 μg/kg + 0.1 μg/kg/min

C[C@@H]1[C@H](c2c(F)ccc(F)c2F)C[C@H](NC(=O)c2cnc3c(c2)C[C@@]2(C3)C(=O)Nc3ncccc32)C(=O)N1CC(F)(F)F [Atogepant, reference compound]
AUC [1]: 2.44 ± 1.4 µg·h/mL
bioavailability [1]: 12.5 ± 7.3%
half-life [1]: 1.6 ± 0.3 h
Cmax [1]: 0.56 ± 0.233 µg/mL

C[C@@H]1[C@H](c2c(F)ccc(F)c2F)C[C@H](NC(=O)c2cc3c(o2)CC[C@]2(C3)C(=O)Nc3ncccc32)C(=O)N1CC(F)(F)F [Example 1A, (R)—N-((3S,5S,6R)-6-methyl-2-oxo-1-(2,2,2-trifluoroethyl)-5-(2,3,6-trifluorophenyl)piperidin-3-yl)-2′-oxo-1′,2′,6,7-tetrahydro-4H-spiro[benzofuran-5,3′-pyrrolo[2,3-b]pyridine]-2-carboxamide]
Pharmacokinetic properties compared with Atogepant [1]: good pharmacokinetic properties
AUC [1]: 23.2 ± 7.95 µg·h/mL
bioavailability [1]: 38.6 ± 13.3%
half-life [1]: 2.93 ± 0.6 h
Cmax [1]: 3.85 ± 1.46 µg/mL
AUC (area under the blood flow change rate-time curve) ([2]; 0.3 μg/kg + 0.03 μg/kg/min): 454 %-min
AUC (area under the blood flow change rate-time curve) ([2]; 1 μg/kg + 0.1 μg/kg/min): 198 %-min
Blood flow change rate [2, 3]: 26%
Blood flow change rate [2, 4]: 12%
Blood flow change rate [2, 5]: 37%
Blood flow change rate [2, 6]: 21%
Blood flow change rate [2, 7]: 26%
Blood flow change rate [2, 8]: 5%
Blood flow change rate [2, 9]: 12%
Blood flow change rate [2, 10]: 9%
Blood flow change rate [2, 11]: −4%
Blood flow change rate [2, 12]: −6%

C[C@@H]1[C@H](c2c(F)ccc(F)c2F)C[C@H](NC(=O)c2cc3c(s2)C[C@]2(C3)C(=O)Nc3ncccc32)C(=O)N1CC(F)(F)F [Example 3A, (S)—N-((3S,5S,6R)-6-methyl-2-oxo-1-(2,2,2-trifluoroethyl)-5-(2,3,6-trifluorophenyl)piperidin-3-yl)-2′-oxo-1′,2′,4,6-tetrahydrospiro[cyclopenta[b]thiophene-5,3′-pyrrolo[2,3-b]pyridine]-2-carboxamide]
Pharmacokinetic properties compared with Atogepant [1]: good pharmacokinetic properties
AUC [1]: 42.5 ± 8.52 µg·h/mL
bioavailability [1]: 90.5 ± 19.1%
half-life [1]: 1.62 ± 0.2 h
Cmax [1]: 10.5 ± 3.73 µg/mL
AUC (area under the blood flow change rate-time curve) ([2]; 0.3 μg/kg + 0.03 μg/kg/min): 1481 %-min
AUC (area under the blood flow change rate-time curve) ([2]; 1 μg/kg + 0.1 μg/kg/min): 395 %-min
Blood flow change rate [2, 3]: 69%
Blood flow change rate [2, 4]: 27%
Blood flow change rate [2, 5]: 71%
Blood flow change rate [2, 6]: 35%
Blood flow change rate [2, 7]: 69%
Blood flow change rate [2, 8]: 25%
Blood flow change rate [2, 9]: 48%
Blood flow change rate [2, 10]: 3%
Blood flow change rate [2, 11]: 49%
Blood flow change rate [2, 12]: 1%
